Assay results taken from the supplement of paper PMC10307832.

Tests used:
Test in all cases: relative viability (nuclei count vs DMSO), 5 days (fraction); higher = more cells survive
[1] = compound: CN(c1ncccc1CNc1nc(Nc2ccc3c(c2)CC(=O)N3)ncc1C(F)(F)F)S(C)(=O)=O + NC(=O)Nc1cc(-c2cccc(F)c2)sc1C(=O)N[C@H]1CCCNC1 [AZD7762] (partner 0.2 µM)
Method in brief: (§1)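 One day after seeding in 1536-well plates, lung cancer cell lines were dosed by pin tool. Dosing was either single-drug or a fixed anchor-drug dose plus five library-drug doses (not always all listed) in √10 steps. After 5 days, nuclei were stained in one fix-and-stain step and counted on 4× images, and relative viability is the nuclei count of treated wells over that of vehicle wells, given as the median of duplicate plates.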

[2] = compound: CN(c1ncccc1CNc1nc(Nc2ccc3c(c2)CC(=O)N3)ncc1C(F)(F)F)S(C)(=O)=O + Nc1ncn([C@H]2C[C@H](O)[C@@H](CO)O2)c(=O)n1 [Decitabine] (partner 2 µM)
Method in brief: as §1

[3] = compound: CN(c1ncccc1CNc1nc(Nc2ccc3c(c2)CC(=O)N3)ncc1C(F)(F)F)S(C)(=O)=O + CC(C)C[C@H](NC(=O)[C@H](Cc1ccccc1)NC(=O)c1cnccn1)B(O)O [Bortezomib] (partner 0.002 µM)
Method in brief: as §1

[4] = compound: CN(c1ncccc1CNc1nc(Nc2ccc3c(c2)CC(=O)N3)ncc1C(F)(F)F)S(C)(=O)=O + CS(=O)(=O)CCNCc1ccc(-c2ccc3ncnc(Nc4ccc(OCc5cccc(F)c5)c(Cl)c4)c3c2)o1 [Lapatinib] (partner 2 µM)
Method in brief: as §1

Row | Cell Line | relative viability ([1]; first compound 0.01 µM) | relative viability ([1]; first compound 0.03162 µM) | relative viability ([1]; first compound 0.1 µM) | relative viability ([1]; first compound 0.3162 µM) | relative viability ([1]; first compound 1 µM) | relative viability ([2]; first compound 0.01 µM) | relative viability ([2]; first compound 0.03162 µM) | relative viability ([2]; first compound 0.1 µM) | relative viability ([2]; first compound 0.3162 µM) | relative viability ([2]; first compound 1 µM) | relative viability ([3]; first compound 0.01 µM) | relative viability ([3]; first compound 0.03162 µM) | relative viability ([3]; first compound 0.1 µM) | relative viability ([3]; first compound 0.3162 µM) | relative viability ([3]; first compound 1 µM) | relative viability ([4]; first compound 0.01 µM) | relative viability ([4]; first compound 0.03162 µM) | relative viability ([4]; first compound 0.1 µM) | relative viability ([4]; first compound 0.3162 µM) | relative viability ([4]; first compound 1 µM)
1 | LCLC-103H | 0.72 | 0.711 | 0.734 | 0.745 | 0.815 | 0.68 | 0.673 | 0.697 | 0.672 | 0.684 | 1.13 | 1.05 | 1.18 | 0.937 | 1.02 |  |  |  |  | 
2 | LK-2 | 0.542 | 0.517 | 0.413 | 0.434 | 0.397 | 0.287 | 0.294 | 0.31 | 0.308 | 0.292 |  |  |  |  |  | 1.16 | 1.21 | 1.02 | 0.984 | 1
3 | NCI-H358 | 0.552 | 0.553 | 0.381 | 0.533 | 0.339 | 0.195 | 0.221 | 0.251 | 0.221 | 0.183 |  |  |  |  |  | 0.449 | 0.414 | 0.42 | 0.431 | 0.397
4 | NCI-H441 | 1.07 | 1.11 | 1.04 | 1.18 | 1.22 | 0.3 | 0.25 | 0.264 | 0.261 | 0.224 | 0.68 | 0.859 | 0.36 | 0.542 | 0.377 |  |  |  |  | 
5 | NCI-H520 |  |  |  |  |  | 0.549 | 0.655 | 0.484 | 0.49 | 0.549 | 0.695 | 0.513 | 0.489 | 1.13 | 0.635 | 0.917 | 1.02 | 0.845 | 0.838 | 1.04
6 | NCI-H661 |  |  |  |  |  | 0.551 | 0.649 | 0.589 | 0.56 | 0.568 | 0.928 | 1.06 | 0.717 | 0.837 | 1.04 | 0.481 | 0.496 | 0.652 | 0.534 | 0.637
7 | NCI-H1299 |  |  |  |  |  |  |  |  |  |  | 1.05 | 1.01 | 1.04 | 0.996 | 1.02 | 1.03 | 0.949 | 1 | 0.988 | 0.972
8 | NCI-H1395 | 0.41 | 0.368 | 0.421 | 0.398 | 0.424 | 0.711 | 0.767 | 0.678 | 0.771 | 0.785 |  |  |  |  |  | 0.934 | 0.974 | 0.998 | 1.23 | 1.19
9 | NCI-H1563 |  |  |  |  |  |  |  |  |  |  | 0.906 | 0.808 | 0.849 | 0.867 | 0.876 | 0.906 | 0.839 | 0.857 | 0.942 | 1.07
10 | NCI-H1648 | 0.66 | 0.588 | 0.535 | 0.551 | 0.677 | 0.6 | 0.476 | 0.426 | 0.485 | 0.367 |  |  |  |  |  |  |  |  |  | 
11 | NCI-H1650 |  |  |  |  |  | 0.502 | 0.474 | 0.513 | 0.426 | 0.47 | 0.229 | 0.196 | 0.232 |  | 0.192 | 0.78 | 0.9 | 0.805 |  | 0.592
12 | NCI-H1703 | 0.131 | 0.18 | 0.124 | 0.127 | 0.118 |  |  |  |  |  | 0.311 | 0.295 | 0.415 | 0.481 | 0.235 | 1.05 | 1.13 | 1.27 | 1.41 | 1.01
13 | NCI-H1793 | 0.407 | 0.541 | 0.543 | 0.53 | 0.452 | 0.494 | 0.563 | 0.458 | 0.45 | 0.432 |  |  |  |  |  | 0.542 | 0.654 | 0.79 | 0.575 | 0.691
14 | NCI-H1944 | 0.723 | 0.571 | 0.602 | 0.672 | 0.658 | 0.448 | 0.474 | 0.467 | 0.432 | 0.445 |  |  |  |  |  | 0.815 | 0.898 | 0.782 | 0.869 | 0.792
15 | NCI-H2009 |  |  |  |  |  | 0.425 | 0.362 | 0.372 | 0.4 | 0.448 | 1.32 | 1.04 | 1.02 | 0.991 | 0.955 | 1.38 | 0.959 | 0.891 | 0.897 | 0.903
16 | NCI-H2023 |  |  |  |  |  | 0.23 | 0.259 | 0.218 | 0.234 | 0.202 | 0.985 | 1.02 | 0.963 | 0.945 | 0.938 | 0.855 | 0.976 | 0.781 | 0.908 | 0.761
17 | NCI-H2170 | 0.942 | 1.02 | 0.794 | 0.96 | 0.914 | 0.528 | 0.463 | 0.417 | 0.459 | 0.448 |  |  |  |  |  | 0.263 | 0.254 | 0.267 |  | 0.276
18 | NCI-H2228 |  |  |  |  |  |  |  |  |  |  | 0.817 | 1.24 | 1.05 | 1.06 | 1.02 | 0.835 | 0.914 | 1.02 | 1.07 | 1.08
19 | NCI-H2342 | 0.506 | 0.516 | 0.472 | 0.402 | 0.404 | 0.802 | 0.728 | 0.631 | 0.742 | 0.717 |  |  |  |  |  |  |  |  |  | 
20 | SK-LU-1 |  |  |  |  |  | 0.641 | 0.689 | 0.636 | 0.639 | 0.576 | 1.33 | 1.28 | 0.839 | 1.24 | 1.12 | 0.885 | 1.13 | 0.912 | 0.722 | 0.874
21 | SK-MES-1 |  |  |  |  |  | 0.441 | 0.467 | 0.465 | 0.36 | 0.363 |  |  |  |  |  | 0.456 | 0.456 | 0.473 | 0.422 | 0.474
22 | SW 900 | 0.579 | 0.688 | 0.784 | 0.594 | 0.733 | 0.437 | 0.466 | 0.425 | 0.449 | 0.454 |  |  |  |  |  |  |  |  |  | 
23 | SW 1573 |  |  |  |  |  | 0.583 | 0.492 | 0.469 | 0.657 | 0.68 | 1.17 | 0.898 | 0.977 | 1.05 | 1.11 | 1.18 | 1.09 | 1.21 | 1.27 | 1.08
24 | UMC-11 |  |  |  |  |  | 0.568 | 0.681 | 0.626 | 0.838 | 0.628 | 0.795 | 0.634 | 0.649 | 0.589 | 0.672 | 1.03 | 1.06 | 0.866 | 0.995 | 0.678
